System: 156681-154-R-J1-PDC complex spheroid viability
Assay: Anticancer human tumor 156681-154-R-J1-PDC patient-derived melanoma cell line growth inhibition [CLK]
Details: for IC50: curve of first compound; for viability, T/C: stronger effect = lower value
Summary of the method: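 Multi-cell-type spheroids combined patient-derived tumor cells with HUVEC endothelial cells and human mesenchymal stem cells. Paired agents were dosed in half-log steps down from about clinical Cmax, or from 10 microM where Cmax was unknown.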

[1] = second compound 0.0316 µM, first compound 0.0316 µM
[2] = second compound 0.0316 µM, first compound 0.1 µM
[3] = second compound 0.0316 µM, first compound 0.316 µM
[4] = second compound 0.0316 µM, first compound 1 µM
[5] = second compound 0.0316 µM, first compound 3.16 µM
[6] = second compound 0.0316 µM, first compound 10 µM
[7] = second compound 0.1 µM, first compound 0.0316 µM
[8] = second compound 0.1 µM, first compound 0.1 µM
[9] = second compound 0.1 µM, first compound 0.316 µM
[10] = second compound 0.1 µM, first compound 1 µM
[11] = second compound 0.1 µM, first compound 3.16 µM
[12] = second compound 0.1 µM, first compound 10 µM
[13] = second compound 0.316 µM, first compound 0.0316 µM
[14] = second compound 0.316 µM, first compound 0.1 µM
[15] = second compound 0.316 µM, first compound 0.316 µM
[16] = second compound 0.316 µM, first compound 1 µM
[17] = second compound 0.316 µM, first compound 3.16 µM
[18] = second compound 0.316 µM, first compound 10 µM
[19] = second compound 1 µM, first compound 0.0316 µM
[20] = second compound 1 µM, first compound 0.1 µM
[21] = second compound 1 µM, first compound 0.316 µM
[22] = second compound 1 µM, first compound 1 µM
[23] = second compound 1 µM, first compound 3.16 µM
[24] = second compound 1 µM, first compound 10 µM
[25] = second compound 3.16 µM, first compound 0.0316 µM
[26] = second compound 3.16 µM, first compound 0.1 µM
[27] = second compound 3.16 µM, first compound 0.316 µM
[28] = second compound 3.16 µM, first compound 1 µM
[29] = second compound 3.16 µM, first compound 3.16 µM
[30] = second compound 3.16 µM, first compound 10 µM
[31] = second compound 10 µM, first compound 0.0316 µM
[32] = second compound 10 µM, first compound 0.1 µM
[33] = second compound 10 µM, first compound 0.316 µM
[34] = second compound 10 µM, first compound 1 µM
[35] = second compound 10 µM, first compound 3.16 µM
[36] = second compound 10 µM, first compound 10 µM
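Further: spheroids exposed to the agents for seven days.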
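Wherever viability, T/C is given: 100% = DMSO vehicle control viability.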

CC(=O)O[C@H]1C(=O)[C@@]2(C)[C@H]([C@H](OC(=O)c3ccccc3)[C@]3(O)C[C@H](OC(=O)[C@H](O)[C@@H](NC(=O)c4ccccc4)c4ccccc4)C(C)=C1C3(C)C)[C@]1(OC(C)=O)CO[C@@H]1C[C@@H]2O + CN1CCN(c2cc(C(=O)Nc3cc4cc(-c5cnn(C)c5)ccc4cn3)ccn2)CC1
IC50 (second compound 0.0316 µM): < 31.6 nM
IC50 (second compound 0.1 µM): < 31.6 nM
IC50 (second compound 0.316 µM): < 31.6 nM
IC50 (second compound 1 µM): < 31.6 nM
IC50 (second compound 3.16 µM): < 31.6 nM
IC50 (second compound 10 µM): < 31.6 nM
viability, T/C [1]: 19.4%
viability, T/C [2]: 13.1%
viability, T/C [3]: 18.9%
viability, T/C [4]: 16.5%
viability, T/C [5]: 23.6%
viability, T/C [6]: 28.9%
viability, T/C [7]: 17.6%
viability, T/C [8]: 14.6%
viability, T/C [9]: 15.4%
viability, T/C [10]: 12.5%
viability, T/C [11]: 16.3%
viability, T/C [12]: 24.3%
viability, T/C [13]: 15.1%
viability, T/C [14]: 21.1%
viability, T/C [15]: 13.8%
viability, T/C [16]: 13%
viability, T/C [17]: 14.8%
viability, T/C [18]: 16.8%
viability, T/C [19]: 0.09%
viability, T/C [20]: 0.13%
viability, T/C [21]: 0.13%
viability, T/C [22]: 0.34%
viability, T/C [23]: 0.12%
viability, T/C [24]: 0.13%
viability, T/C [25]: 0.09%
viability, T/C [26]: 0.74%
viability, T/C [27]: 0.35%
viability, T/C [28]: 0.08%
viability, T/C [29]: 0.23%
viability, T/C [30]: 0.22%
viability, T/C [31]: 0.09%
viability, T/C [32]: 0.7%
viability, T/C [33]: 0.46%
viability, T/C [34]: 0.52%
viability, T/C [35]: 0.61%
viability, T/C [36]: 0.3%

CCc1c2c(nc3ccc(O)cc13)-c1cc3c(c(=O)n1C2)COC(=O)[C@]3(O)CC + CN1CCN(c2cc(C(=O)Nc3cc4cc(-c5cnn(C)c5)ccc4cn3)ccn2)CC1
IC50 (second compound 0.0316 µM): < 3.16 nM
IC50 (second compound 0.1 µM): < 3.16 nM
IC50 (second compound 0.316 µM): < 3.16 nM
IC50 (second compound 1 µM): < 3.16 nM
IC50 (second compound 3.16 µM): < 3.16 nM
IC50 (second compound 10 µM): < 3.16 nM
viability, T/C (second compound 0.0316 µM, first compound 0.00316 µM): 42.5%
viability, T/C (second compound 0.0316 µM, first compound 0.01 µM): 14.9%
viability, T/C [1]: 15%
viability, T/C [2]: 16.9%
viability, T/C [3]: 17.2%
viability, T/C [4]: 4.31%
viability, T/C (second compound 0.1 µM, first compound 0.00316 µM): 24.5%
viability, T/C (second compound 0.1 µM, first compound 0.01 µM): 15.2%
viability, T/C [7]: 12.1%
viability, T/C [8]: 16.4%
viability, T/C [9]: 13.9%
viability, T/C [10]: 2.11%
viability, T/C (second compound 0.316 µM, first compound 0.00316 µM): 12.3%
viability, T/C (second compound 0.316 µM, first compound 0.01 µM): 12.3%
viability, T/C [13]: 14.7%
viability, T/C [14]: 5.42%
viability, T/C [15]: 1.97%
viability, T/C [16]: 1.05%
viability, T/C (second compound 1 µM, first compound 0.00316 µM): 0.13%
viability, T/C (second compound 1 µM, first compound 0.01 µM): 0.25%
viability, T/C [19]: 0.33%
viability, T/C [20]: 2.85%
viability, T/C [21]: 2.44%
viability, T/C [22]: 0.97%
viability, T/C (second compound 3.16 µM, first compound 0.00316 µM): 0.1%
viability, T/C (second compound 3.16 µM, first compound 0.01 µM): 2.44%
viability, T/C [25]: 1.86%
viability, T/C [26]: 0.73%
viability, T/C [27]: 1.39%
viability, T/C [28]: 0.88%
viability, T/C (second compound 10 µM, first compound 0.00316 µM): 0.64%
viability, T/C (second compound 10 µM, first compound 0.01 µM): 3.44%
viability, T/C [31]: 2.3%
viability, T/C [32]: 1.35%
viability, T/C [33]: 2.63%
viability, T/C [34]: 2.01%

COc1cccc2c1C(=O)c1c(O)c3c(c(O)c1C2=O)CC(O)(C(=O)CO)CC3OC1CC(N)C(O)C(C)O1 (stereo unspecified) + CN1CCN(c2cc(C(=O)Nc3cc4cc(-c5cnn(C)c5)ccc4cn3)ccn2)CC1
IC50 (second compound 0.0316 µM): < 31.6 nM
IC50 (second compound 0.1 µM): < 31.6 nM
IC50 (second compound 0.316 µM): < 31.6 nM
IC50 (second compound 1 µM): < 31.6 nM
IC50 (second compound 3.16 µM): < 31.6 nM
IC50 (second compound 10 µM): < 31.6 nM
viability, T/C [1]: 43.4%
viability, T/C [2]: 48.3%
viability, T/C [3]: 4.36%
viability, T/C [4]: 0.18%
viability, T/C [5]: 0.09%
viability, T/C [6]: 3.75%
viability, T/C [7]: 30.6%
viability, T/C [8]: 22.5%
viability, T/C [9]: 3.39%
viability, T/C [10]: 0.14%
viability, T/C [11]: 0.09%
viability, T/C [12]: 0.26%
viability, T/C [13]: 11.2%
viability, T/C [14]: 5.67%
viability, T/C [15]: 0.29%
viability, T/C [16]: 0.1%
viability, T/C [17]: 0.2%
viability, T/C [18]: 1.51%
viability, T/C [19]: 0.37%
viability, T/C [20]: 0.13%
viability, T/C [21]: 0.57%
viability, T/C [22]: 2.6%
viability, T/C [23]: 0.76%
viability, T/C [24]: 0.18%
viability, T/C [25]: 0.05%
viability, T/C [26]: 0.07%
viability, T/C [27]: 0.08%
viability, T/C [28]: 1.69%
viability, T/C [29]: 1.88%
viability, T/C [30]: 0.27%
viability, T/C [31]: 0.05%
viability, T/C [32]: 1.66%
viability, T/C [33]: 2.85%
viability, T/C [34]: 0.12%
viability, T/C [35]: 1.59%
viability, T/C [36]: 0.51%

From PubChem BioAssay AID2060627 (Molecular Pharmacology Branch, DTP, NCI, 2025)
